Assay results as given in paper PMC10649961, “Novel Mitochondria-Targeted Amphiphilic Aminophosphonium Salts and Lipids Nanoparticles: Synthesis, Antitumor Activity and Toxicity” (Nanomaterials, 2023).
Read-outs that look alike come from different tables or passages of the source.

Experiments:
A549 [1] = assay: cells; conditions: Homo sapiens, A549, 48 h, read-out: Cytotoxic Effects (IC50)
M-HeLa [2] = assay: cells; conditions: Homo sapiens, 48 h, read-out: Cytotoxic Effects (IC50)
[3] = tested on: Pseudomonas aeruginosa ATCC 9027; assay: Antimicrobial activity, serial microdilutions, Pa; assay type: cell-based; set-up: key to Minimum Inhibitory Concentration (MIC) / Minimum bactericidal and fungicidal concentrations (MBC, MFC): – means non-active; conditions: for MIC / MBC: Pseudomonas aeruginosa; for MIC: ATCC9027, read-out: Minimum Inhibitory Concentration (MIC); for MBC: ATCC9027, read-out: Minimum bactericidal and fungicidal concentrations (MBC, MFC)
Method: (§1) The antimicrobial activity of test compounds was determined by serial microdilutions in 96-well plates using Mueller-Hinton broth for bacterial culture and Sabouraud broth for yeast culture. Cultures of Gram-positive bacteria were used in the experiment: Staphylococcus aureus ATCC 6538 P FDA 209P, Bacillus cereus ATCC 10702 NCTC 8035, Enterococcus faecalis ATCC 29212; Gram-negative bacteria: Escherichia coli ATCC 25922, Pseudomonas aeruginosa ATCC 9027; and yeast: Candida albicans ATCC 10231, purchased from the State Collection of Pathogenic Microorganisms and Cell Cultures “SCPM-Obolensk” (Obolensk, Russia). Methicillin-resistant strains of S. aureus (MRSA) were isolated from patients with chronic tonsillitis (MRSA-1) and sinusitis (MRSA-2) in the bacteriological laboratory of the Republican Clinical Hospital (Kazan, Russia). The experiments were carried out in triplicate.

[4] = tested on: Escherichia coli ATCC 25922; assay: Antimicrobial activity, serial microdilutions, Ec; assay type: cell-based; conditions: Escherichia coli; for MIC: ATCC25922, read-out: Minimum Inhibitory Concentration (MIC); for MBC: ATCC25922, read-out: Minimum bactericidal and fungicidal concentrations (MBC, MFC)
Method: as §1

Hep G2 [5] = tested on: Hep G2
SK-OV-3 [6] = tested on: SK-OV-3
PANC-1 [7] = tested on: PANC-1
[8] = tested on: Staphylococcus aureus ATCC 6538 P FDA 209P; assay: Antimicrobial activity, serial microdilutions, Sa; assay type: cell-based; conditions: Staphylococcus aureus; for MIC: read-out: Minimum Inhibitory Concentration (MIC); for MBC: read-out: Minimum bactericidal and fungicidal concentrations (MBC, MFC)
Method: as §1

T98G [9] = assay: cells; conditions: Homo sapiens, 48 h, read-out: Cytotoxic Effects (IC50)
HuTu 80 [10] = tested on: HuTu 80
T98G [11] = tested on: T98G
Hep G2 [12] = assay: cells; conditions: Homo sapiens, HepG2, 48 h, read-out: Cytotoxic Effects (IC50)
MCF-7 [13] = assay: cells; conditions: Homo sapiens, MCF7, 48 h, read-out: Cytotoxic Effects (IC50)
SK-OV-3 [14] = assay: cells; conditions: Homo sapiens, SK-OV-3, 48 h, read-out: Cytotoxic Effects (IC50)
[15] = tested on: Enterococcus faecalis ATCC 29212; assay: Antimicrobial activity, serial microdilutions, Ef; assay type: cell-based; set-up: key to Minimum Inhibitory Concentration (MIC) / Minimum bactericidal and fungicidal concentrations (MBC, MFC): – means non-active; conditions: for MIC / MBC: Enterococcus faecalis; for MIC: ATCC29212, read-out: Minimum Inhibitory Concentration (MIC); for MBC: ATCC29212, read-out: Minimum bactericidal and fungicidal concentrations (MBC, MFC)
Method: as §1

MRSA-1 = assay: Antimicrobial activity, serial microdilutions, MRSA-1; assay type: cell-based, S. aureus; conditions: Staphylococcus aureus; for MIC: read-out: Minimum Inhibitory Concentration (MIC); for MBC: read-out: Minimum bactericidal and fungicidal concentrations (MBC, MFC)
Method: as §1

MCF-7 [16] = tested on: MCF-7
PC3 [17] = assay: cells; conditions: Homo sapiens, PC-3, 48 h, read-out: Cytotoxic Effects (IC50), PC3, MTT assay, 48 h
[18] = tested on: Bacillus cereus ATCC 10702 NCTC 8035; assay: Antimicrobial activity, serial microdilutions, Bc; assay type: cell-based; conditions: Bacillus cereus; for MIC: Bc, read-out: Minimum Inhibitory Concentration (MIC); for MBC: read-out: Minimum bactericidal and fungicidal concentrations (MBC, MFC)
Method: as §1

A549 [19] = tested on: A549
[20] = tested on: Candida albicans ATCC 10231; assay: Antimicrobial activity, serial microdilutions, Ca; assay type: cell-based; set-up: key to Minimum Inhibitory Concentration (MIC) / Minimum bactericidal and fungicidal concentrations (MBC, MFC): – means non-active; conditions: for MIC: read-out: Minimum Inhibitory Concentration (MIC)
Method: as §1

PC3 [21] = tested on: PC3
PANC-1 [22] = assay: cells; conditions: Homo sapiens, PANC-1, 48 h, read-out: Cytotoxic Effects (IC50)
HuTu 80 [23] = assay: cells; conditions: Homo sapiens, HuTu80, 48 h, read-out: Cytotoxic Effects (IC50)
MRSA-2 = assay: Antimicrobial activity, serial microdilutions, MRSA-2; assay type: cell-based, S. aureus; conditions: Staphylococcus aureus; for MIC: read-out: Minimum Inhibitory Concentration (MIC); for MBC: read-out: Minimum bactericidal and fungicidal concentrations (MBC, MFC)
Method: as §1

M-HeLa [24] = conditions: calculated relative to the cell line Chang liver (b)
DU-145 [25] = assay: cells; conditions: Homo sapiens, DU-145, 48 h, read-out: Cytotoxic Effects (IC50), DU-145, MTT assay, 48 h
DU-145 [26] = tested on: DU-145
[27] = calculated relative to the cell line Chang liver (b)
[28] = reference normal cell line not marked at the place (ns cells)
[29] = calculated relative to the cell line WI38 (a)

In the case of `CCCCCCCCC[P+](N(CC)CC)(N(CC)CC)N(CC)CC` [4c, Tris(diethylamino)(nonyl)phosphonium iodide], the IC50 (A549 [1]) is reported as 21.1 ± 1.5 µM, the IC50 (M-HeLa [2]) is reported as 1.7 ± 0.1 µM and the “Minimum Inhibitory Concentration (MIC)” value [3] is reported as “–”. The “Minimum bactericidal and fungicidal concentrations (MBC, MFC)” value [3] was “–”, the MIC [4] was 500 ± 48 µM and the MBC [4] was 500 ± 48 µM. The “selectivity index (SI)” value (Hep G2 [5]; [27]) was 2.0, the “selectivity index (SI)” value (SK-OV-3 [6]; [28]) was “ns (ns—no selectivity)” and the “selectivity index (SI)” value (PANC-1 [7]; [27]) was 2.8. The MIC [8] was 3.9 ± 0.3 µM, the MBC [8] was 250 ± 18 µM and the IC50 (T98G [9]) was 3.2 ± 0.2 µM. For the same molecule, the “selectivity index (SI)” value (HuTu 80 [10]; [27]) was 1.8, the “selectivity index (SI)” value (T98G [11]; [27]) was 1.5 and the IC50 (Hep G2 [12]) was 2.4 ± 0.1 µM. For the same molecule, the IC50 (MCF-7 [13]) was 1.9 ± 0.1 µM, the IC50 (SK-OV-3 [14]) was 12.1 ± 1.1 µM and the MIC [15] was 62.5 ± 5.2 µM. The MBC [15] was 500 ± 48 µM, the MIC (MRSA-1) was 3.9 ± 0.4 µM and the MBC (MRSA-1) was 125 ± 10 µM. The “selectivity index (SI)” value (MCF-7 [16]; [27]) was 2.5, the IC50 (PC3 [17]) was 1.8 ± 0.1 µM and the MIC [18] was 3.9 ± 0.3 µM. The MBC [18] was greater than 500 µM, the “selectivity index (SI)” value (A549 [19]; [28]) was “ns (ns—no selectivity)” and the “Minimum Inhibitory Concentration (MIC)” value ([20]; Ca) was “–”. For the same molecule, the “Minimum bactericidal and fungicidal concentrations (MBC, MFC)” value ([20]; Ca) was “–”, the “selectivity index (SI)” value (PC3 [21]; [27]) was 2.7 and the IC50 (PANC-1 [22]) was 1.7 ± 0.1 µM. The IC50 (HuTu 80 [23]) was 2.6 ± 0.2 µM, the MIC (MRSA-2) was 7.8 ± 0.6 µM and the MBC (MRSA-2) was 250 ± 20 µM. For the same molecule, the “selectivity index (SI)” value (M-HeLa [24]) was 2.8.
`CCCCCCCCCCCCCC[P+](N(CC)CC)(N(CC)CC)N(CC)CC` [4e, Tris(diethylamino)(tetradecyl)phosphonium bromide] was tested, and the IC50 (A549 [1]) was 1.7 ± 0.1 µM, the IC50 (DU-145 [25]) was 0.4 ± 0.03 µM and the IC50 (M-HeLa [2]) was 0.4 ± 0.03 µM. For the same molecule, the MIC [3] was 7.8 ± 0.6 µM, the MBC [3] was 7.8 ± 0.6 µM and the MIC [4] was 15.6 ± 1.3 µM. The MBC [4] was 62.5 ± 5.2 µM, the “selectivity index (SI)” value (Hep G2 [5]; [27]) was 1.1 and the “selectivity index (SI)” value (SK-OV-3 [6]; [27]) was 1.0. The “selectivity index (SI)” value (PANC-1 [7]; [27]) was 4.3, the MIC [8] was 0.25 ± 0.01 µM and the MBC [8] was 0.9 ± 0.07 µM. The IC50 (T98G [9]) was 1 ± 0.09 µM, the “selectivity index (SI)” value (HuTu 80 [10]; [27]) was 28 and the “selectivity index (SI)” value (T98G [11]; [27]) was 1.7. For the same molecule, the IC50 (Hep G2 [12]) was 1.5 ± 0.1 µM, the IC50 (MCF-7 [13]) was 0.9 ± 0.07 µM and the IC50 (SK-OV-3 [14]) was 1.7 ± 0.1 µM. For the same molecule, the MIC [15] was 0.5 ± 0.04 µM, the MBC [15] was 1.9 ± 0.1 µM and the MIC (MRSA-1) was 0.5 ± 0.04 µM. For the same molecule, the MBC (MRSA-1) was 0.5 ± 0.04 µM, the “selectivity index (SI)” value (MCF-7 [16]; [27]) was 1.9 and the IC50 (PC3 [17]) was 1.7 ± 0.1 µM. For the same molecule, the MIC [18] was 0.5 ± 0.04 µM, the MBC [18] was 7.8 ± 0.6 µM and the “selectivity index (SI)” value (A549 [19]; [27]) was 1.0. For the same molecule, the MIC ([20]; Candida albicans, ATCC10231) was 1.9 ± 0.1 µM, the MBC ([20]; Candida albicans, ATCC10231, read-out: Minimum bactericidal and fungicidal concentrations (MBC, MFC)) was 7.8 ± 0.6 µM and the “selectivity index (SI)” value (PC3 [21]; [27]) was 1.0. The “selectivity index (SI)” value (DU-145 [26]; [27]) was 4.3, the IC50 (PANC-1 [22]) was 0.4 ± 0.03 µM and the IC50 (HuTu 80 [23]) was 0.06 ± 0.005 µM. For the same molecule, the MIC (MRSA-2) was 0.25 ± 0.02 µM, the MBC (MRSA-2) was 0.25 ± 0.02 µM and the “selectivity index (SI)” value (M-HeLa [24]) was 4.3.
With `CCCCCCCCC[P+](c1ccccc1)(c1ccccc1)N(CC)CC` [6c, (Diethylamino)(nonyl)diphenylphosphonium iodide] the IC50 (A549 [1]) was 11.4 ± 0.9 µM, the IC50 (DU-145 [25]) was 1.3 ± 0.1 µM and the IC50 (M-HeLa [2]) was 0.9 ± 0.07 µM. It also gave an MIC [3] of 250 ± 21 µM, an MBC [3] of 250 ± 21 µM and an MIC [4] of 500 ± 46 µM. For the same molecule, the MBC [4] was 500 ± 47 µM, the “selectivity index (SI)” value (Hep G2 [5]; [29]) was 1.3 and the “selectivity index (SI)” value (SK-OV-3 [6]; [28]) was “ns (ns—no selectivity)”. The “selectivity index (SI)” value (PANC-1 [7]; [29]) was 6.4, the MIC [8] was 3.9 ± 0.3 µM and the MBC [8] was 125 ± 11 µM. For the same molecule, the IC50 (T98G [9]) was 2.4 ± 0.1 µM, the “selectivity index (SI)” value (HuTu 80 [10]; [29]) was 42 and the “selectivity index (SI)” value (T98G [11]; [29]) was 3.5. For the same molecule, the IC50 (Hep G2 [12]) was 6.2 ± 0.5 µM, the IC50 (MCF-7 [13]) was 4.2 ± 0.3 µM and the IC50 (SK-OV-3 [14]) was 12.7 ± 1.1 µM. The “Minimum bactericidal and fungicidal concentrations (MBC, MFC)” value [15] was “–”, the MIC [15] was 31.3 ± 5.4 µM and the MIC (MRSA-1) was 3.9 ± 0.3 µM. For the same molecule, the MBC (MRSA-1) was 62.5 ± 5.4 µM, the “selectivity index (SI)” value (MCF-7 [16]; [29]) was 2.0 and the IC50 (PC3 [17]) was 1 ± 0.08 µM. The MIC [18] was 1.9 ± 0.1 µM, the MBC [18] was greater than 500 µM and the “selectivity index (SI)” value (A549 [19]; [28]) was “ns (ns—no selectivity)”. For the same molecule, the “Minimum bactericidal and fungicidal concentrations (MBC, MFC)” value ([20]; Ca) was “–”, the MIC ([20]; Candida albicans, ATCC10231) was 500 ± 47 µM and the “selectivity index (SI)” value (PC3 [21]; [29]) was 8.3. The “selectivity index (SI)” value (DU-145 [26]; [29]) was 6.4, the IC50 (PANC-1 [22]) was 1.3 ± 0.1 µM and the IC50 (HuTu 80 [23]) was 0.2 ± 0.01 µM. The MIC (MRSA-2) was 3.9 ± 0.4 µM and the MBC (MRSA-2) was 7.8 ± 0.7 µM.
